“Also recorded” adds a separate entry of the source.
Target: T1, wild type KDM4A (Homo sapiens, UniProt O75164)
T1 construct: human KDM4A-jmjC domain (catalytic domain of KDM4A); 6xHis (N); host or cells: E. coli BL21 (DE3)
T1 sequence (O75164 142-308 limits assumed): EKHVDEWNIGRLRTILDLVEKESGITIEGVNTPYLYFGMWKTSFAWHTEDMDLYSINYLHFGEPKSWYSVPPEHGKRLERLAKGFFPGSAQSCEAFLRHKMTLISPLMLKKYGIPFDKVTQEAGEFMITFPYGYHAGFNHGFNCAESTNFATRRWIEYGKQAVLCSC
Experiment: MALDI-MS end-point demethylase assay on H3K9me3 peptide
Format: biochemical
From the text: To develop an appropriate inhibitor, we selected N-oxalyl glycine (NOG, 2) scaffold because of its structural similarity with 2OG and the ability to inhibit 2OG-utilizing enzymes including KDMs (Figure 1C).[29]−[31] Substituting −CH2– at C3 of 2OG with −NH– in NOG prevents its oxidative decarboxylation by KDMs, making the inhibitor cofactor-competitive. […] We synthesized a panel of eight NOG analogues (3–10), derived from L-amino acids, carrying varied steric substituents at C4, with the reasoning that a bulky substituent at C4 would selectively fit into the expanded pocket of F185A over wild type KDM4A (Figures 2B and S1–S6, Schemes S1 and S2). The inhibitory effect of each compound was determined based on the extent of enzyme-catalyzed demethylation of a canonical peptide substrate corresponding to the N-terminus of histone 3 carrying trimethylated lysine at position 9 (H3K9me3). […] Such orthogonal inhibition of the engineered demethylase constitutes a powerful chemical probe to study the functions of a specific member of an enzyme family without issues of off-target activity.
assay (Biorad) kit with BSA concentrations as a standard. […]
8. […]
2 mM L-ascorbic acid with a total assay volume of 10 µL. Fe(II) supplement and L-ascorbic acid
Lastly, the 2OG and peptide were
positive mode and analyzed on Bruker FlexAnalysis software. The percent demethylated peptide
the multiple demethylation events on the peptide. […]

Compound: CC(C)CC(NC(=O)C(=O)O)C(=O)O (centres unmarked) [compound 6, N-oxalyl leucine]
- inhibition of wild type KDM4A demethylase activity (MALDI-MS) (H3K9me3 peptide, 200 µM 2OG, fixed concentration of NOG analogue): without affecting
- dose-dependent inhibition of wild type KDM4A (up to 500 μM): no inhibitory effect; also recorded: does not inhibit

— publication PMC11783601, “Analogue-Sensitive Inhibition of Histone Demethylases Uncovers Member-Specific Function in Ribosomal Protein Synthesis” (Journal of the American Chemical Society, 2025)
